# Experimental data as given in publication PMC8826726, “Selective Toxicity of Secondary Metabolites from the Entomopathogenic Bacterium Photorhabdus luminescens sonorensis against Selected Plant Parasitic Nematodes of the Tylenchina Suborder” (Microbiology Spectrum, 2022).
# Read-outs that look alike come from different tables or passages of the source.
# Experiments:
# [1] = test system: Meloidogyne incognita J2 juveniles; assay: microbe, parasite or virus in culture; conditions: Meloidogyne incognita, 24 h
# Excerpt: (§1) Only soil inhabiting (free-living or infective) stages of target and non-target nematode species were considered in the present study. All nematode cultures (except T. semipenetrans) were maintained in the Stock laboratory (University of Arizona). M. incognita was reared in planta using susceptible tomato plants (cv. Roma VF; seedlings with five or six true leaves; courtesy of Dr. J. Brown, University of Arizona). Eggs of M. incognita were extracted from infected tomato plant roots, and J2 were collected after hatching, following the procedures of Atamian et al. ([50]). T. semipenetrans was isolated from infested lemon orchards at the Yuma Agricultural Center, University of Arizona (Yuma, AZ, USA). Eggs of T. semipenetrans were extracted from infected lemon tree roots using the procedures of El-Borai et al. ([51]), and J2 were collected using the same procedure as that described for M. incognita.
# (§2) Twelve-well tissue culture plates were used as the experimental arena. For each of the tested nematode species, an inoculum of 100 nematodes, suspended in 20 μL distilled water, was added to each well. […] For PPA (Enamine) and indole (Alfa Aesar), 13 incremental concentrations were tested ranging from 10 to 400 μg/mL in 1 mL of distilled water (DMSO ≤ 1%; vol/vol). […] Distilled water with 1% DMSO was used as the negative control. To measure the combined nematicidal effects of the three SMs, equal concentrations of two or three SMs were mixed in 1:1 or 1:1:1 mixture. For example, a 20 μg/mL solution of a two-SM mixture contained 20 μg from metabolite A and 20 μg metabolite B, dissolved in 1 mL distilled water. Individual or combined SMs from 10 μg/mL to 200 μg/mL (in 20 μg/ml increments) were prepared in distilled water (DMSO ≤ 1%; vol/vol) and used for the bioassays.
# (§3) The well plates were covered with their lids and incubated at 25°C in the dark. For the targeted nematode species, nematicidal activity was recorded at 24 h, 48 h, and 72 h after initial exposure to the individual SMs. For the non-target species, data were only recorded at 24 h after initial exposure to the individual SMs. For SM mixtures, mortality was recorded 24 h after initial exposure of the targeted nematode species. Nematodes were probed with a needle to assess if they were alive, dead, or paralyzed. […] Those nematodes that resumed activity upon probing were considered to suffer from temporary paralysis (impaired motility). Paralyzed nematodes were rinsed at least three times in distilled water and held for an additional 24 h to check for their recovery from temporarily paralysis. […] Experiments were repeated at least three times per treatment for each concentration tested.
# (§4) For the toxicity data visualization, the relationship between percent mortality or temporary paralysis and metabolite concentration were described by a sigmoidal curve, which was fitted by the logistical function using the statistical software package SigmaPlot for Windows, version 14.0 (Systat Software Inc.). […] Concentration-response data of single metabolites or SM mixtures were pooled for each concentration and subjected to probit regression analysis using the Polo Plus program (LeOra Software). The LC or EC values, along with the corresponding 95% confidence intervals, were estimated for each single SM or SM mixture at each exposure time, depending on the experimental setting.
# [2] = test system: Tylenchulus semipenetrans J2 juveniles; assay: microbe, parasite or virus in culture; conditions: Tylenchulus semipenetrans, 24 h
# Excerpt: as §1, §2, §3, §4
# C. elegans [3] = assay: in vitro; conditions: data not shown
# Excerpt: (§5) The non-target species, C. elegans wild-type strain N2 Bristol (courtesy of Dr. G.L. Sutphin, University of Arizona) and Rhabditis blumi DF5010 (Caenorhabditis Genetics Center, University of MN, USA) were maintained in vitro in nematode growth medium (NGM) agar plates seeded with Escherichia coli (Migula) Castellani and Chalmers, strain OP-50, as described previously ([52]). Mixed juveniles and hermaphrodites (5 to 6 days old) were collected from the culture plates prior to the bioassays. Infective third-stage juveniles (IJs) of three non-target entomopathogenic nematode species (H. sonorensis Caborca strain, H. bacteriophora TT01 strain, and Steinernema carpocapsae All strain) were also maintained by rearing them in vivo using wax moth larvae (Galleria mellonella) as the host, according to procedures described previously ([53]), and collected for bioassays within 2 to 4 days of their emergence from nematode-infected cadavers. Nematode population density (number of nematodes per ml) was standardized prior to setting up well-plate bioassays, by adjusting each nematode suspension to a concentration of 100 nematodes in 20 μL of distilled water.
# as §2, §3, §4
# R. blumi [4] = assay: in vitro; conditions: data not shown
# Excerpt: as §5, §2, §3, §4
# [5] = test system: Meloidogyne incognita J2 juveniles; assay: In vitro nematistatic assay (temporary paralysis); assay type: cell-based
# [6] = test system: Tylenchulus semipenetrans J2 juveniles; assay: In vitro nematistatic assay (temporary paralysis); assay type: cell-based; conditions: for EC50 / EC90 / EC10 / EC25: temporary paralysis
# C. elegans [7] = assay: In vitro nematistatic assay (temporary paralysis), non-target species; assay type: cell-based; conditions: Caenorhabditis elegans; reversible paralysis, 24 h exposure
# S. carpocapsae = assay: as above; assay type: cell-based; conditions: Steinernema carpocapsae; reversible paralysis, 24 h exposure
# H. bacteriophora = assay: as above; assay type: cell-based; conditions: Heterorhabditis bacteriophora; reversible paralysis, 24 h exposure
# R. blumi [8] = assay: as above; assay type: cell-based, Rhabditis blumi
# Meloidogyne incognita J2 = assay: Recovery from indole-induced temporary paralysis after rinsing with water; assay type: cell-based
# [9] = test system: non-target nematodes versus targeted PPNs; assay: Selectivity index, non-target nematodes over targeted PPNs
# Description: The selectivity index of a given SM was calculated by dividing the averages of the LC50 or EC50 values obtained against each of the selected non-target nematodes by the LC50 or the EC50 values observed for each of the targeted PPN tested.
structure (smiles),measurement,setting,value
"c1ccc2[nH]ccc2c1 [Indole, indole]",LC50,[1],307 µg/mL
same,LC50,[2],388 µg/mL
same,Concentrations showing nematicidal activity,C. elegans [3],≥ 300 µg/mL
same,Concentrations showing nematicidal activity,R. blumi [4],≥ 300 µg/mL
same,EC10,[5]; 24 h exposure,"41.3 (36.8, 44.9) μg/mL"
same,EC25,[5]; 24 h exposure,"47.8 (43.9, 51.1) μg/mL"
same,EC50,[5]; 24 h exposure,56.3 µg/mL
same,EC10,[5]; 48 h exposure,"44.3 (36.8, 49.7) μg/mL"
same,EC25,[5]; 48 h exposure,"51.7 (45.0, 56.6) μg/mL"
same,EC10,[5]; 72 h exposure,"62.9 (31.4, 72.3) μg/mL"
same,EC25,[5]; 72 h exposure,"68.9 (42.1, 76.9) μg/mL"
same,EC50,"[5]; Meloidogyne incognita, 24 h, 24 h exposure, read-out: EC50",56 µg/mL
same,EC90,"[5]; Meloidogyne incognita, 24 h exposure",77 µg/mL
same,EC50,"[5]; Meloidogyne incognita, 48 h, 48 h exposure, read-out: EC50",61.3 µg/mL
same,EC90,"[5]; Meloidogyne incognita, 48 h exposure",84.7 µg/mL
same,EC50,"[5]; Meloidogyne incognita, 72 h, 72 h exposure, read-out: EC50",76.3 µg/mL
same,EC90,"[5]; Meloidogyne incognita, 72 h exposure",92.5 µg/mL
same,Reduction of EC50 for T. semipenetrans versus M. incognita,[6]; 24 h of exposure,34%
same,Increase of EC50 at 72 h compared with 24 h,[6]; T. semipenetrans,84%
same,Increase of EC90 at 72 h compared with 24 h,[6]; T. semipenetrans,79%
same,EC50,"[6]; Tylenchulus semipenetrans, 24 h, 24 h exposure, read-out: EC50",37 µg/mL
same,EC50,"[6]; Tylenchulus semipenetrans, 48 h, 48 h exposure, read-out: EC50",66.2 µg/mL
same,EC50,"[6]; Tylenchulus semipenetrans, 72 h, 72 h exposure, read-out: EC50",68.3 µg/mL
same,EC90,"[6]; Tylenchulus semipenetrans, 24 h exposure",64.2 µg/mL
same,EC90,"[6]; Tylenchulus semipenetrans, 48 h exposure",108 µg/mL
same,EC90,"[6]; Tylenchulus semipenetrans, 72 h exposure",115 µg/mL
same,EC10,[6]; 24 h exposure,"21.4 (12.8, 27.9) μg/mL"
same,EC25,[6]; 24 h exposure,"27.8 (18.9, 34.2) μg/mL"
same,EC50,[6]; 24 h exposure,37.1 µg/mL
same,EC10,[6]; 48 h exposure,"40.6 (8.18, 57.5) μg/mL"
same,EC25,[6]; 48 h exposure,"51.2 (16.1, 67.0) μg/mL"
same,EC10,[6]; 72 h exposure,"40.5 (13.1, 55.8) μg/mL"
same,EC25,[6]; 72 h exposure,"51.9 (23.3, 66.0) μg/mL"
same,EC50,C. elegans [7],159 µg/mL
same,EC50,S. carpocapsae,> 400 µg/mL
same,EC50,H. bacteriophora,> 400 µg/mL
same,Reduction of 24-h EC50 against R. blumi versus C. elegans,R. blumi [8]; 24 h,77%
same,EC50,"R. blumi [8]; Metarhabditis blumi, reversible paralysis, 24 h exposure",37 µg/mL
same,Recovery after 24 h in water,"Meloidogyne incognita J2; 60 μg/mL, 24-h exposure to treatment",95.9%
same,Recovery after 24 h in water,"Meloidogyne incognita J2; 60 μg/mL, 72-h exposure to treatment",95.5%
same,Recovery after 24 h in water,"Meloidogyne incognita J2; 80 μg/mL, 24-h exposure to treatment",94.9%
same,Recovery after 24 h in water,"Meloidogyne incognita J2; 80 μg/mL, 72-h exposure to treatment",92.8%
same,M. incognita regaining baseline mobility during a recovery period of 24 h,Meloidogyne incognita J2; regardless of length of prior exposure (24 h to 72 h),over 90%
same,"Selectivity index (EC50), bacteria-feeding nematodes alone",[9]; 24 h EC50,2–3
same,"Selectivity index (EC50), entomopathogenic nematodes alone",[9]; 24 h EC50,7-11
same,"Selectivity index (EC50), selected non-target nematode species","[9]; 24 h EC50, all non-target species",5–8
